The text below walks through data of patent US9688710B2, “Inhibitors of sodium glucose cotransporter 1” (LEXICON PHARMACEUTICALS, INC., priority 2012, dated 2017).

Assay [1] has as its target Human sodium/glucose co-transporter type 1 (SGLT1) (Homo sapiens (Human), UniProt P13866). Put plainly: In vitro human SGLT1 inhibition assay (14C-AMG uptake). It counts as cell-based. The settings on record: HEK293 cells expressing human HA-SGLT1, 14C-AMG uptake. As to the method: Human sodium/glucose co-transporter type 1 (SGLT1; accession number NP_000334; GI: 4507031) was cloned into pIRESpuro2 vector for mammalian expression (construct: HA-SGLT1-pIRESpuro2).
HEK293 cells were transfected with the human HA-SGLT1-pIRESpuro2 vector and the bulk stable cell line was selected in presence of 0.5 μg/mL of puromycin. Human HA-SGLT1 cells were maintained in DMEM media containing 10% FBS, 1% GPS and 0.5 μg/mL of puromycin.
The HEK293 cells expressing the human HA-SGLT1 were seeded in 384 well plates (30,000 cells/well) in DMEM media containing 10% FBS, 1% GPS and 0.5 μg/mL of puromycin, then incubated overnight at 37 C, 5% CO2. Cells were then washed with uptake buffer (140 mM NaCl, 2 mM KCl, 1 mM CaCl2, 1 mM MgCl2, 10 mM HEPES, 5 mM Tris, 1 mg/mL bovine serum albumin (BSA), pH 7.3). Twenty microliters of uptake buffer with or without testing compounds were added to the cells. Then, 20 microliters of uptake buffer containing ^14C-AMG (100 nCi) were also added to cells. The cell plates were incubated at 37° C., 5% CO2 for 1-2 hours. After washing the cells with uptake buffer, scintillation fluid was added (40 microliters/well) and ^14C-AMG uptake was measured by counting radioactivity using a scintillation coulter (TopCoulter NXT; Packard Instruments).

The target of assay [2] is Human sodium/glucose co-transporter type 2 (SGLT2) (Homo sapiens (Human), UniProt P31639). The assay is described as follows: In vitro human SGLT2 inhibition assay (14C-AMG uptake). It counts as cell-based. The settings on record: HEK293 cells expressing human HA-SGLT2, 14C-AMG uptake. The procedure: Human sodium/glucose co-transporter type 2 (SGLT2; accession number P31639; GI:400337) was cloned into pIRESpuro2 vector for mammalian expression (construct: HA-SGLT2-pIRESpuro2).
Human sodium/glucose co-transporter type 2 (SGLT2), sequence (P31639 whole entry): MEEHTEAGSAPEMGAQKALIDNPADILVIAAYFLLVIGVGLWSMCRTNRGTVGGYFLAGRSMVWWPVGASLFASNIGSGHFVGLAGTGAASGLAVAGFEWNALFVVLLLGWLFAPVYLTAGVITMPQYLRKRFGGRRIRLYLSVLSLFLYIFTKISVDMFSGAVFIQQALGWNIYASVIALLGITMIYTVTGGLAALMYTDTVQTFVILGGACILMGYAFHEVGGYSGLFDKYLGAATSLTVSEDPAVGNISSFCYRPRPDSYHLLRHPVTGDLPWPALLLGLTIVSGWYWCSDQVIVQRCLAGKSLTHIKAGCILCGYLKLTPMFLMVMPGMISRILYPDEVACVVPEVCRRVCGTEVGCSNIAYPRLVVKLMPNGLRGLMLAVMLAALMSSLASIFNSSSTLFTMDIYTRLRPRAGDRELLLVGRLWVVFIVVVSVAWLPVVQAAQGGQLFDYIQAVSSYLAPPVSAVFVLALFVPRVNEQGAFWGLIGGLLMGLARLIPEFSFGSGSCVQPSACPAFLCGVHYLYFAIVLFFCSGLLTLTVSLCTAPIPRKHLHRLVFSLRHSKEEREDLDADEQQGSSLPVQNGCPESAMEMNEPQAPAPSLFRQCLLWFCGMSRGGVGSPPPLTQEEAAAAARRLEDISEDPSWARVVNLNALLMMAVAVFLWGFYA
HEK293 cells were transfected with the human HA-SGLT2-pIRESpuro2 vector and the bulk stable cell line was selected in presence of 0.5 μg/mL of puromycin. Human HA-SGLT2 cells were maintained in DMEM media containing 10% FBS, 1% GPS and 0.5 μg/mL of puromycin.
The HEK293 cells expressing the human HA-SGLT2 were seeded in 384 well plates (30,000 cells/well) in DMEM media containing 10% FBS, 1% GPS and 0.5 μg/mL of puromycin, then incubated overnight at 37 C, 5% CO2. Cells were then washed with uptake buffer (140 mM NaCl, 2 mM KCl, 1 mM CaCl2, 1 mM MgCl2, 10 mM HEPES, 5 mM Tris, 1 mg/mL bovine serum albumin (BSA), pH 7.3). Twenty microliters of uptake buffer with or without testing compounds were added to the cells. Then, 20 microliters of uptake buffer containing ^14C-AMG (100 nCi) were added to the cells. The cell plates were incubated at 37° C., 5% CO2 for 1-2 hours. After washing the cells with uptake buffer, scintillation fluid was added (40 microliters/well) and ^14C-AMG uptake was measured by counting radioactivity using a scintillation coulter (TopCoulter NXT; Packard Instruments).

Human sodium/glucose co-transporter type 1 (SGLT1), sequence (P13866 whole entry): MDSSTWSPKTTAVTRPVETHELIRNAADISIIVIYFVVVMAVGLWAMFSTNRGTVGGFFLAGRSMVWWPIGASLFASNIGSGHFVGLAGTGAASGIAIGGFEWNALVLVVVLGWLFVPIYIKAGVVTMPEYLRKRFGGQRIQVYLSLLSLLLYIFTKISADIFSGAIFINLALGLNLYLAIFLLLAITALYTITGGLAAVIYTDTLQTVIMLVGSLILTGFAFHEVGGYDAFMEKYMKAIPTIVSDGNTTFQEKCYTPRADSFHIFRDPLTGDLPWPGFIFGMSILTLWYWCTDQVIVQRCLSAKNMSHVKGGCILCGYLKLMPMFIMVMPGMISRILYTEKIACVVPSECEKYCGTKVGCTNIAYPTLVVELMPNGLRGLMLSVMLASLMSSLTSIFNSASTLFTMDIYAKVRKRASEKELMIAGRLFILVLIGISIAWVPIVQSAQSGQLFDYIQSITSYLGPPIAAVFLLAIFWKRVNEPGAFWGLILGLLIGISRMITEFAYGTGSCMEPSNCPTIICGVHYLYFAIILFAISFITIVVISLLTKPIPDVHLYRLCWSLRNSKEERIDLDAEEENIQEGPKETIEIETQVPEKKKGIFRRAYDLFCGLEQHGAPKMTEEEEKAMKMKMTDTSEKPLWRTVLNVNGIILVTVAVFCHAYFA

One may read the IC50 as the concentration that inhibits the measured activity by half. For `CS[C@H]1O[C@@H](c2ccc(C)c(Cc3ccc(CCCCNC(=O)NC(CO)(CO)CO)cc3)c2)[C@H](O)[C@@H](O)[C@@H]1O` [1-(1,3-dihydroxy-2-(hydroxymethyl)propan-2-yl)-3-(4-(4-(2-methyl-5-((2S,3R,4R,5S,6R)-3,4,5-trihydroxy-6-(methylthio)tetrahydro-2H-pyran-2-yl)benzyl)phenyl)butyl)urea], the IC50 in assay [1] and in assay [2] was less than 10 nM throughout.

Regarding `CS[C@H]1O[C@@H](c2ccc(C)c(Cc3ccc(OCCNC(=O)NC(C)(C)CO)cc3)c2)[C@H](O)[C@@H](O)[C@@H]1O` [1-(1-hydroxy-2-methylpropan-2-yl)-3-(2-(4-(2-methyl-5-((2S,3R,4R,5S,6R)-3,4,5-trihydroxy-6-(methylthio)tetrahydro-2H-pyran-2-yl)benzyl)phenoxy)ethyl)urea], the IC50 in assay [1] is less than 100 nM.

For the molecule `CS[C@H]1O[C@@H](c2ccc(C)c(Cc3ccc(CCCCNC(=O)NC(C)(C)CO)cc3)c2)[C@H](O)[C@@H](O)[C@@H]1O` [1-(1-hydroxy-2-methylpropan-2-yl)-3-(4-(4-(2-methyl-5-((2S,3R,4R,5S,6R)-3,4,5-trihydroxy-6-(methylthio)tetrahydro-2H-pyran-2-yl)benzyl)phenyl)butyl)urea], the figures for the concentration for half-maximal inhibition (IC50) in assay [1] and in assay [2] were less than 100 nM and less than 10 nM, respectively.

Take `CS[C@H]1O[C@@H](c2ccc(C)c(Cc3ccc(CCCCCNC(=O)NC(C)(C)CO)cc3)c2)[C@H](O)[C@@H](O)[C@@H]1O` [1-(1-hydroxy-2-methylpropan-2-yl)-3-(5-(4-(2-methyl-5-((2S,3R,4R,5S,6R)-3,4,5-trihydroxy-6-(methylthio)tetrahydro-2H-pyran-2-yl)benzyl)phenyl)pentyl)urea]: the results for the IC50 in assay [1] and in assay [2] were less than 100 nM and less than 10 nM, respectively.

With `CS[C@H]1O[C@@H](c2ccc(Cl)c(Cc3ccc(OCCNC(=O)NC(C)(C)CO)cc3)c2)[C@H](O)[C@@H](O)[C@@H]1O` [1-(2-(4-(2-chloro-5-((2S,3R,4R,5S,6R)-3,4,5-trihydroxy-6-(methylthio)tetrahydro-2H-pyran-2-yl)benzyl)phenoxy)ethyl)-3-(1-hydroxy-2-methylpropan-2-yl)urea], the IC50 in assay [1] and in assay [2] was less than 10 nM each time.

For the molecule `CS[C@H]1O[C@@H](c2ccc(Cl)c(Cc3ccc(OCCNC(=N)N)cc3)c2)[C@H](O)[C@@H](O)[C@@H]1O` [1-(2-(4-(2-chloro-5-((2S,3R,4R,5S,6R)-3,4,5-trihydroxy-6-(methylthio)tetrahydro-2H-pyran-2-yl)benzyl)phenoxy)ethyl)guanidine], the IC50 in assay [1] and in assay [2] was less than 10 nM each time.

As for `CS[C@H]1O[C@@H](c2ccc(C)c(Cc3ccc(OCCNC(=N)N)cc3)c2)[C@H](O)[C@@H](O)[C@@H]1O` [1-(2-(4-(2-methyl-5-((2S,3R,4R,5S,6R)-3,4,5-trihydroxy-6-(methylthio)tetrahydro-2H-pyran-2-yl)benzyl)phenoxy)ethyl)guanidine], the IC50 in assay [1] and in assay [2] was less than 10 nM throughout.

For `CS[C@H]1O[C@@H](c2ccc(Cl)c(Cc3ccc(OCCCNC(=N)N)cc3)c2)[C@H](O)[C@@H](O)[C@@H]1O` [1-(3-(4-(2-chloro-5-((2S,3R,4R,5S,6R)-3,4,5-trihydroxy-6-(methylthio)tetrahydro-2H-pyran-2-yl)benzyl)phenoxy)propyl)guanidine], the IC50 in assay [1] and in assay [2] was less than 10 nM in each case.

`CS[C@H]1O[C@@H](c2ccc(C)c(Cc3ccc(OCCCC(=O)NC4(C(N)=O)CCCC4)cc3)c2)[C@H](O)[C@@H](O)[C@@H]1O` [1-(4-(4-(2-methyl-5-((2S,3R,4R,5S,6R)-3,4,5-trihydroxy-6-(methylthio)tetrahydro-2H-pyran-2-yl)benzyl)phenoxy)butanamido)cyclopentanecarboxamide]: the IC50 in assay [1] and in assay [2] was less than 10 nM throughout.

As for `CS[C@H]1O[C@@H](c2ccc(C)c(Cc3ccc(CCCCNC(=N)N)cc3)c2)[C@H](O)[C@@H](O)[C@@H]1O` [1-(4-(4-(2-methyl-5-((2S,3R,4R,5S,6R)-3,4,5-trihydroxy-6-(methylthio)tetrahydro-2H-pyran-2-yl)benzyl)phenyl)butyl)guanidine], the IC50 in assay [1] and in assay [2] was less than 10 nM throughout.

For the molecule `CS[C@H]1O[C@@H](c2ccc(C)c(Cc3ccc(OCCNC4(C(N)=O)CCCC4)cc3)c2)[C@H](O)[C@@H](O)[C@@H]1O` [1-((2-(4-(2-methyl-5-((2S,3R,4R,5S,6R)-3,4,5-trihydroxy-6-(methylthio)tetrahydro-2H-pyran-2-yl)benzyl)phenoxy)ethyl)amino)cyclopentanecarboxamide], the IC50 in assay [1] is less than 100 nM; in assay [2] it was less than 10 nM.

Take `CS[C@H]1OC(c2ccc(C)c(Cc3ccc(OCCCNC4(C(N)=O)CCCC4)cc3)c2)[C@H](O)[C@@H](O)[C@@H]1O` (stereo partly drawn) [1-((3-(4-(2-methyl-5-((3R,4R,5S,6R)-3,4,5-trihydroxy-6-(methylthio)tetrahydro-2H-pyran-2-yl)benzyl)phenoxy)propyl)amino)cyclopentanecarboxamide]: the IC50 in assay [1] and in assay [2] was less than 10 nM throughout.

In the case of `CS[C@H]1O[C@@H](c2ccc(C)c(Cc3ccc(CCCCNC4(C(N)=O)CCCC4)cc3)c2)[C@H](O)[C@@H](O)[C@@H]1O` [1-((4-(4-(2-methyl-5-((2S,3R,4R,5S,6R)-3,4,5-trihydroxy-6-(methylthio)tetrahydro-2H-pyran-2-yl)benzyl)phenyl)butyl)amino)cyclopentanecarboxamide], the IC50 was less than 100 nM in assay [1] and less than 10 nM in assay [2].

On to `CS[C@H]1O[C@@H](c2ccc(C)c(Cc3ccc(OCC(=O)NCC(C)(C)C(N)=O)cc3)c2)[C@H](O)[C@@H](O)[C@@H]1O` [2,2-dimethyl-3-(2-(4-(2-methyl-5-((2S,3R,4R,5S,6R)-3,4,5-trihydroxy-6-(methylthio)tetrahydro-2H-pyran-2-yl)benzyl)phenoxy)acetamido)propanamide], for which the IC50 is less than 100 nM in assay [1] and less than 10 nM in assay [2].

With `CS[C@H]1OC(c2ccc(C)c(Cc3ccc(OCCNC(=O)NCC(C)(C)C(N)=O)cc3)c2)[C@H](O)[C@@H](O)[C@@H]1O` (stereo partly drawn) [2,2-dimethyl-3-(3-(2-(4-(2-methyl-5-((3R,4R,5S,6R)-3,4,5-trihydroxy-6-(methylthio)tetrahydro-2H-pyran-2-yl)benzyl)phenoxy)ethyl)ureido)propanamide], the half-inhibitory concentration (IC50) in assay [1] and in assay [2] was less than 10 nM each time.

For the molecule `CS[C@H]1O[C@@H](c2ccc(C)c(Cc3ccc(CCCC(=O)NCC(C)(C)C(=O)O)cc3)c2)[C@H](O)[C@@H](O)[C@@H]1O` [2,2-dimethyl-3-(4-(4-(2-methyl-5-((2S,3R,4R,5S,6R)-3,4,5-trihydroxy-6-(methylthio)tetrahydro-2H-pyran-2-yl)benzyl)phenyl)butanamido)propanoic acid], the IC50 in assay [1] was less than 100 nM; in assay [2], less than 10 nM.

Turning to `CS[C@H]1O[C@@H](c2ccc(C)c(Cc3ccc(OCCNCC(C)(C)C(N)=O)cc3)c2)[C@H](O)[C@@H](O)[C@@H]1O` [2,2-dimethyl-3-((2-(4-(2-methyl-5-((2S,3R,4R,5S,6R)-3,4,5-trihydroxy-6-(methylthio)tetrahydro-2H-pyran-2-yl)benzyl)phenoxy)ethyl)amino)propanamide], the IC50 in assay [1] and in assay [2] was less than 10 nM in each case.

`CS[C@H]1O[C@@H](c2ccc(C)c(Cc3ccc(OCCCNCC(C)(C)C(N)=O)cc3)c2)[C@H](O)[C@@H](O)[C@@H]1O` [2,2-dimethyl-3-((3-(4-(2-methyl-5-((2S,3R,4R,5S,6R)-3,4,5-trihydroxy-6-(methylthio)tetrahydro-2H-pyran-2-yl)benzyl)phenoxy)propyl)-amino)propanamide]: the IC50 in assay [1] and in assay [2] was less than 10 nM throughout.
